Test results: patent publication US20140287923A1, “METHOD FOR ENHANCING CROP YIELDS BY APPLICATION OF TREHALOSE” (Stoller Enterprises, Inc., priority 2012, published 2014)

What was measured:
Type in all cases: in vivo
[1] = tested on: Field Corn, cultivar Asgrow 7371; assay: Foliar trehalose on field corn yield, cultivar Asgrow 7371; details: trehalose 100 grams per acre foliar, 4 and 5 weeks after V16 stage
Text: Field Corn, cultivar Asgrow 7371, was twice treated foliarly before harvest with an aqueous solution of trehalose at the rate of 100 grams of trehalose per acre, at 4 weeks after the V16 stage of growth, and once again foliarly at the same rate at 5 weeks after the V16 stage of growth.

[2] = tested on: Sugar Cane; assay: Trehalose on sugar per acre from sugar cane; details: 4 weeks before harvest
Procedure: Sugar Cane, grown in southern Texas was treated 4 weeks before harvest with an aqueous solution of Trehalose at the rate of 450 grams per acre, gave an extra 897 pounds of sugar from sugar cane production.

[3] = tested on: Potatoes, cultivar Eva; assay: Reducing sugar content of potato tubers after foliar trehalose, cultivar Eva; details: for Reducing Sugar Content of Tubers (absorbance at 570 nm): 100 grams/acre foliar, n = 16
Procedure: Potatoes, cultivar Eva in Pennsylvania, were treated either 4 or 2 weeks before harvest with a foliar application of trehalose at the rate of 100 grams per acre. The potatoes were harvested and shipped to College Station, Texas for analysis of reducing sugars. […] (Table 4).

[4] = tested on: Potato, cultivar Eva; assay: Yield of Eva potato treated foliarly with trehalose 4 weeks before harvest; details: for pounds per graded size #4 (>10 ounces): control 0.0; for pounds per graded size #1 (0 to 4 ounces): control 0.8; for pounds per graded size #2 (>4 ounces) / pounds per graded size #3 (>6 ounces): control 6.8; for pounds Total: control 14.4
[5] = tested on: Field corn, Cultivar Dekalb C6805; assay: Foliar trehalose on field corn yield, cultivar Dekalb C6805; details: for Yield of field corn (bushels per acre): control 155; for Weight of 1,000 kernels (grams): control 261
Procedure: Field corn, Cultivar Dekalb C6805, was treated foliarly with an aqueous solution of trehalose at the rate of 100 grams per acre, either at the […] stage of growth or 3 weeks before the […] stage of growth, in southern Texas. Field corn yields were increased with this cultivar from 155 bushels per acre to an unprecedented 337 bushels per acre for this locale, characterized by hot, windy climate and poor soils and high levels of pests including disease and insects. Seed weights of the corn kernels were increased.

[6] = tested on: Sugar Beets; assay: Foliar trehalose on sugar beet yield and quality
Text: Sugar Beets were foliarly treated with Trehalose at the rate of 300 grams per acre in Yuma Colo.

[7] = tested on: winter wheat; assay: Foliar trehalose on yield of winter wheat; details: 100 g/a Foliar, 4 weeks before harvest; control 0%; highly significant
Procedure: Wheat, grown in Ontario Canada, was treated foliarly with an aqueous solution of trehalose at the rate of 100 grams per acre, 4 weeks before harvest.

[8] = tested on: Potatoes, cultivar Snowden; assay: Reducing sugar content of potato tubers after foliar trehalose, cultivar Snowden; details: 4 or 2 weeks before harvest, inversely proportional to the dose of trehalose
Procedure: Potatoes, cultivar Snowden in Wisconsin, were treated either 4 or 2 weeks before harvest with a foliar application of trehalose at the rate of 100 grams per acre. The potatoes were harvested and shipped to College Station, Tex. for analysis of reducing sugars.

[9] = 100 grams per acre foliar at the V16 stage of growth
[10] = 100 grams per acre foliar, 3 wk prior to V16 growth stage

OC[C@H]1O[C@H](O[C@H]2O[C@H](CO)[C@@H](O)[C@H](O)[C@H]2O)[C@H](O)[C@@H](O)[C@@H]1O [Trehalose, trehalose]
Yield increase by treatment of trehalose [1]: up to 125% | Yield of field corn (bushels per acre) ([1]; Cultivar 7371, control 103 bu/acre): 231 bu/acre | Weight of 1,000 kernels (grams) ([1]; Cultivar 7371, control 288 grams): 368 grams | increase in lb of sugar per acre from sugar cane ([2]; 450 g/a Foliar, control 0): 897 lb | extra sugar from sugar cane production ([2]; 450 grams per acre): 897 pounds | Reducing sugars in the potato tubers ([3]; 100 grams per acre foliar, 4 weeks before harvest): decreased | Reducing Sugar Content of Tubers (absorbance at 570 nm) ([3]; 2 weeks before Harvest, control 0.200 ± 0.08): 0.211 ± 0.12 absorbance at 570 nm | Reducing Sugar Content of Tubers (absorbance at 570 nm) ([3]; 4 weeks before Harvest, control 0.217 ± 0.15): 0.125 ± 0.03 absorbance at 570 nm | Potato yield ([4]; 100 grams per acre foliar): increased yields | pounds per graded size #4 (>10 ounces) ([4]; Trehalose 25 g foliar): 0.0 pounds | pounds per graded size #1 (0 to 4 ounces) ([4]; Trehalose 25 g foliar): 1.1 pounds | pounds per graded size #2 (>4 ounces) ([4]; Trehalose 25 g foliar): 7.2 pounds | pounds per graded size #3 (>6 ounces) ([4]; Trehalose 25 g foliar): 8.6 pounds | pounds Total ([4]; Trehalose 25 g foliar): 16.9 pounds | pounds per graded size #4 (>10 ounces) ([4]; Trehalose 50 g foliar): 0.0 pounds | pounds per graded size #1 (0 to 4 ounces) ([4]; Trehalose 50 g foliar): 0.9 pounds | pounds per graded size #2 (>4 ounces) ([4]; Trehalose 50 g foliar): 7.0 pounds | pounds per graded size #3 (>6 ounces) ([4]; Trehalose 50 g foliar): 8.3 pounds | pounds Total ([4]; Trehalose 50 g foliar): 16.2 pounds | pounds per graded size #4 (>10 ounces) ([4]; Trehalose 100 g foliar): 0.4 pounds | pounds per graded size #1 (0 to 4 ounces) ([4]; Trehalose 100 g foliar): 0.8 pounds | pounds per graded size #2 (>4 ounces) ([4]; Trehalose 100 g foliar): 7.4 pounds | pounds per graded size #3 (>6 ounces) ([4]; Trehalose 100 g foliar): 8.4 pounds | pounds Total ([4]; Trehalose 100 g foliar): 17.0 pounds | Seed weights of the corn kernels ([5]; 100 grams per acre foliar): increased | Yield of field corn (bushels per acre) [5, 9]: 311 bushels per acre | Weight of 1,000 kernels (grams) [5, 9]: 286 grams | Yield of field corn (bushels per acre) [5, 10]: 327 bushels per acre | Weight of 1,000 kernels (grams) [5, 10]: 294 grams | Field corn yield ([5]; 100 grams per acre foliar, V16 or 3 weeks before V16, increased from 155): 337 bushels per acre | Percent SLM ([6]; 300 g/a Foliar, 2 weeks before harvest, control 1.85): 1.22% | Percent Sugar ([6]; 300 g/a Foliar, 2 weeks before harvest, control 15.83%): 17.23% | Sugar Beet yield (tons per acre) ([6]; 300 g/a Foliar, 2 weeks before harvest, control 27.79): 28.4 tons per acre | Pounds of Sugar per acre ([6]; 300 g/a Foliar, 2 weeks before harvest, control 8797): 9770 Pounds of Sugar per acre | Extra sugar per acre transferred to the beets ([6]; 300 grams per acre foliar): nearly half an extra ton of sugar per acre | % SLM ([6]; 300 grams per acre, 2 weeks before harvest): decided reduction | increase in yield of winter wheat [7]: 9.5%, highly significant | Reducing sugar content of potato tubers [8]: decrease in reducing sugar content
